{"source": "patent US8481521B2", "about": "“Methods of treating cell proliferative disorders” (Rigel Pharmaceuticals, Inc., priority 2005, dated 2013)", "key": {"[1]": {"tested_on": "phosphorylated histone H3 (phH3)", "assay": "Phosphorylated histone H3 immunohistochemistry of MV4-11 tumor xenografts", "format": "in vivo, human", "conditions": "vs vehicle treated MV4-11 xenografts", "protocol": "Proliferation was assessed ex vivo in formalin fixed tumor sections from three randomly selected mice from this study using immunohistochemical staining of human-specific phosphorylated histone H3 (phH3) as a marker for tumor cell proliferation. Human phH3 expression was reduced in tumor sections in a dose-dependent manner following treatment with VII."}, "[2]": {"assay": "Conversion of prodrug to drug in microsome preparations", "format": "in vitro ADME, rat", "excerpt": "Although phosphate-containing prodrugs suitable for oral administration are of interest, skilled artisans will appreciate that prodrugs including phosphate-containing progroups R^P can be administered via other routes of administration, as phosphatases are distributed throughout the body. […] Thus, the only requirement is that the particular phosphate-containing progroup R^P selected should be removable under the conditions of intended use."}, "pErk1/2 and pStat5": {"tested_on": "pErk1/2 and pStat5", "assay": "Immunohistochemical staining for pErk1/2 and pStat5 in MV4-11 tumor sections", "format": "in vivo", "conditions": "40 mg/kg VII, 26 days", "protocol": "Tumors were harvested from mice ˜2 hours following final dose of vehicle or 40 mg/kg VII."}, "[3]": {"assay": "Pharmacokinetics / oral bioavailability in Sprague-Dawley rats", "format": "in vivo", "protocol": "Prodrug Compound 4 was tested for oral bioavailability. For the study, the prodrug was dissolved in various vehicles (e.g. PEG 400 solution and CMC suspension) for intravenous and oral dosing in the rats. […] Following administration of the prodrug and/or drug, plasma samples were obtained and extracted. The plasma concentrations of the prodrug and/or drug were determined by high performance liquid chromatography/tandem mass spectrometry (LC/MS/MS) methods. Pharmacokinetic analyses were performed based on the plasma concentration data. The pharmacokinetic parameters of interest include Clearance (CL), Volume of distribution at steady-state (Vss), terminal half-life (t1/2), and oral bioavailability (% F).\nReferring to FIG. 16, PK profiles are shown for IV and PO administration in Spraque-Dawley rats. For IV administration, Compound 4 was dissolved in PEG-400 and administered at a dose of 1 mg/kg.\nFIG. 17 summarizes the PK parameters for the study described in FIG. 4.\nFIG. 23 illustrates the absorption of prodrug Compound 4 from different vehicles."}, "[4]": {"assay": "Solubility of drug and phosphate prodrug", "format": "physicochemical", "conditions": "water solubility; read-out: Solubility", "excerpt": "In contrast, Compound 4 is highly polar at neutral pH. Measured solubility values are consistent with the predicted cLogD values at pH=7.5."}, "[5]": {"assay": "Stability under acidic and neutral conditions", "format": "physicochemical", "conditions": "37° C."}, "[6]": {"tested_on": "MV4-11 human acute myeloid leukemia cells", "format": "in vivo", "conditions": "for Hazard ratio: 40 mg/kg PO bid vs vehicle; for % Reduction from Vehicle Control, Bone Marrow / % Reduction from Vehicle Control, Peripheral blood: 40 mg/kg PO, bid daily", "protocol": "At the end of the acclimatization period for the animals (>3 weeks in this study), mice were pretreated with sterile filtered (using a […] syringe filter) Cyclophosphamide prepared in 0.9% sterile saline (Sigma, St Louis, Mo.) by intraperitoneal injection of 150 mg/kg/day for 2 days followed by a rest period of 72 hours prior to intravenous (i.v.) injection of leukemia cells via the lateral tail vein, as described below.\nOn day 0 of the study, mice were inoculated once by intravenous tail vein injection of 5 or 10 million human MV4-11 leukemia cells resuspended in 100 microliters of fresh media as outlined in Table 1.\nAfter mice were inoculated with human MV4-11 cells (day 0), dosing began on day 17 of the study. Mice were dosed orally (PO) twice daily (bid) for the duration of the study with either Vehicle or 40 mg/kg VII at 5 mL/kg dose volume with a minimum separation of 8 hours between doses\nThis study was designed to assess the effects of various doses of VII on tumor engraftment, disease progression, severity, and overall survival in a murine intravenous MV4-11 leukemia model using NOD-SCID immunocompromised mice as a host with cyclophosphamide pretreatment to enhance tumor engraftment.\nThis study was conducted in an effort to confirm a previous efficacy data from study, but also to determine if 5 or 10 million cell inoculations would yield similar inconsistencies in tumor cell engraftment in the bone marrow and peripheral blood or alter the resultant mortality in these mice. Since a detectable level of engraftment in some animals was observed as early as 4 weeks post tumor cell injection in pilot studies and historical efficacy data had been determined with this regimen, animals were treated orally (PO) with vehicle or R945788 calcium salt at 40 mg/kg on a twice per day (bid) schedule, every day beginning approximately 2 weeks after tumor cell injection. Animals were continued on this regimen until euthanized or until the end of the study. In this experiment, all surviving mice were terminated when mice reached approximately 5 months of age (day 83 of the study) in order to limit the affects of the spontaneous thymoma development, which can be seen in NOD-SCID mice beginning at approximately 5-6 months of age.\nOn day 0 (Aug. 12, 2005), mice were i.v. injected with human MV4-11 cells in fresh medium at 5 or 10 million cells per mouse via the lateral tail vein. By day 3 post MV4-11 cell injection (on Aug. 15, 2005), one mouse was excluded due to early death from excessive body weight loss prior to randomization or treatment, potentially due to cyclophosphamide treatment. Remaining animals were randomized into treatment groups using body weights and dosing began on day 17 post cell injection (Aug. 29, 2005). Mean body weights of groups 1-4 were 20.66±0.43, 20.23±0.41, 20.18±0.54, and 20.88±0.59, respectively. Treatment groups are outlined in Table 1:\nOverall disease severity was determined from a combination of body weight loss, clinical observations, necropsy findings, and quantitation of tumor cell engraftment in selected tissues. Mice were weighed 2-3 times weekly and percent weight change calculated. At the first indication of morbidity, hind limb paralysis with apparent wasting, severe cachexia or weight loss greater than 20%, involving lethargy, ruffled fur etc, as outlined in IACUC Protocol Rigel 6-2002 “Efficacy of Novel Chemotherapeutics in Human/Mouse Tumor Xenograft Models”, animals were removed from the study and euthanized. At sacrifice, animals were anesthetized with CO2 gas and blood was be collected by cardiocentesis. Blood from animal was transferred to K2EDTA coated Microtainer (lavendar top) tubes. Whole blood was placed indirectly on ice and processed for flow cytometric staining, as described in section below. To further assess disease severity, the location and description of palpable or suspected tumors on gross examination was carefully noted upon necropsy. […]"}, "[7]": {"conditions": "5 million cells, 40 mg/kg, at sacrifice, listed as VII"}}, "note": "Several values for one entry are separate records, joined by “and”; a condition that tells them apart may be missing. Equal entries are not always repeated. Entries after “also recorded” stand apart in the source; their conditions may differ. Where two headings read alike, the source gives them in different places."}
{"smiles": "COc1cc(Nc2ncc(F)c(Nc3ccc4c(n3)N(COP(=O)(O)O)C(=O)C(C)(C)O4)n2)cc(OC)c1OC", "note": "[Compound 4, N4-(2,2-dimethyl-4-[(dihydrogenphosphonoxy)methyl]-3-oxo-5-pyrido[1,4]oxazin-6-yl)-5-fluoro-N2-(3,4,5-trimethoxyphenyl)-2,4-pyrimidinediamine]", "values": [{"measurement": "inhibition of phH3 staining", "setting": "[1]; 20 mg/kg VII", "result": 53, "unit": "%"}, {"measurement": "inhibition of phH3 staining", "setting": "[1]; 40 mg/kg VII", "result": 71, "unit": "%"}, {"measurement": "conversion to drug Compound III in intestinal and hepatic microsomes", "setting": "[2]; microsomes from a different source", "result": "metabolize to the active drug Compound III; also recorded: conversion of Compound 4 to Compound III was observed"}, {"measurement": "conversion to drug Compound III in microsomal preparations", "setting": "[2]; preparations obtained from Xenotech", "result": "failed to convert"}, {"measurement": "STATS and ERK1/2 phosphorylation in tumor sections", "setting": "pErk1/2 and pStat5", "result": "reduced"}, {"measurement": "prodrug in plasma after IV administration", "setting": "[3]; 1 mg/kg IV in PEG-400", "result": "Rapid disappearance"}, {"measurement": "absorption from different vehicles", "setting": "[3]; PEG-400, CMC, powder in hard gelatin capsules", "result": "absorbed equally well"}, {"measurement": "plasma levels of drug metabolite Compound III after oral prodrug", "setting": "[3]; PO in PEG-400", "result": "high levels"}, {"measurement": "prodrug present systemically after oral administration", "setting": "[3]; PO in PEG-400", "result": "no prodrug Compound 4 was present systemically"}, {"measurement": "AUC/dose of drug Compound III exposure", "setting": "[3]; oral Compound III 2.5 mg/kg or Compound 4 4 mg/kg in PEG-400", "result": "nearly identical"}, {"measurement": "solubility", "setting": "[4]", "result": "> 5000", "unit": "µg/mL"}, {"measurement": "stability under acidic and neutral conditions", "setting": "[5]", "result": "stable"}, {"measurement": "Median DOD (day of death)", "setting": "[6]; 5E6 MV4-11 cells i.v., 40 mg/kg PO bid from day 17", "result": 79, "unit": "days"}, {"measurement": "Hazard ratio", "setting": "[6]; 5E6 cells", "result": 3.5}, {"measurement": "% ILS (percent increase in life-span)", "setting": "[6]; 5E6 cells, 40 mg/kg PO bid, vs vehicle median DOD 54 days", "result": 45, "unit": "%"}, {"measurement": "animals necropsied showing visible or palpable tumors", "setting": "[6]; 5 million cells, 40 mg/kg", "result": "3 out of 11"}, {"measurement": "animals terminated by study termination", "setting": "[6]; 5 million cells, 40 mg/kg", "result": "7 of 12"}, {"measurement": "surviving mice at day 83", "setting": "[6]; 5 million cells, 40 mg/kg PO bid, group of 12", "result": 5}, {"measurement": "% Reduction from Vehicle Control, Bone Marrow", "setting": "[6]; 5 million cells", "result": 96, "unit": "%"}, {"measurement": "% Reduction from Vehicle Control, Peripheral blood", "setting": "[6]; 5 million cells", "result": 99, "unit": "%"}, {"measurement": "Bone Marrow: Mean % Tumor Cells (CD33+HLA+)", "setting": "[6]; [7]", "result": "1% and 1.03%"}, {"measurement": "Peripheral Blood: Mean % Tumor Cells (CD33+HLA+)", "setting": "[6]; [7]", "result": "0.6% and 0.59%"}, {"measurement": "Hazard ratio", "setting": "[6]; 10E6 cells", "result": 7.6}, {"measurement": "animals necropsied showing visible or palpable tumors", "setting": "[6]; 10 million cells, 40 mg/kg", "result": "7 out of 13"}, {"measurement": "animals terminated by study termination", "setting": "[6]; 10 million cells, 40 mg/kg", "result": "4 out of 13"}, {"measurement": "surviving mice at day 83", "setting": "[6]; 10 million cells, 40 mg/kg PO bid, group of 13", "result": 9}, {"measurement": "% Reduction from Vehicle Control, Bone Marrow", "setting": "[6]; 10 million cells", "result": 59, "unit": "%"}, {"measurement": "% Reduction from Vehicle Control, Peripheral blood", "setting": "[6]; 10 million cells, all samples", "result": 80, "unit": "%"}, {"measurement": "Peripheral Blood: Mean % Tumor Cells (CD33+HLA+)", "setting": "[6]; 10 million cells, 40 mg/kg, all samples", "result": 10.32, "unit": "%"}, {"measurement": "Bone Marrow: Mean % Tumor Cells (CD33+HLA+)", "setting": "[6]; 10 million cells, 40 mg/kg, at sacrifice, listed as VII", "result": "5% and 5.21%"}, {"measurement": "mice survived to Day 83", "setting": "[6]; 10 million cells, 40 mg/kg, vehicle 0%", "result": "Over 50%"}, {"measurement": "tolerability in NOD-SCID mice", "setting": "[6]; mouse, in vivo", "result": "well tolerated"}]}
